Source: US20240228481A1, “NOVEL SULFONAMIDE SERIES OF QR2 INHIBITORS TO TACKLE OXIDATIVE STRESS AND COGNITIVE DECLINE” (CARMEL HAIFA UNIVERSITY ECONOMIC CORPORATION LTD., priority 2021, published 2024)
Counter-ions that a name gives are not always drawn.

Key:
QR2 = target: T1, QR2 (Homo sapiens, UniProt P16083); assay: Cellular thermal shift assay (CETSA) of QR2 in HEK293T cells; assay type: cell-based; parameters: endogenous in cells; host or cells: HEK293T
T1 sequence (P16083 1-231): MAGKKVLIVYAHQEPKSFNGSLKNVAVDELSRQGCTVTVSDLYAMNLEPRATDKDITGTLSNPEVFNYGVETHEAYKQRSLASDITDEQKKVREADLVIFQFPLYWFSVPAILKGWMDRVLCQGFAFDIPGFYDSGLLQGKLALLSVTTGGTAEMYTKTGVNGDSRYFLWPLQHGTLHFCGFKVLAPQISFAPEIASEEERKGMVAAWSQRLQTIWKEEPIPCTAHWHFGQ
Description: The CETSA assay was performed as described (Miettinen and Björklund, 2014) with some modifications. Briefly, HEK293T cells were trypsinized (Biological Industries), washed in PBS (Sigma-Aldrich), and then suspended in PBS containing protease inhibitor cocktail (Roche). The suspended cells were then divided into two Eppendorf tubes and were treated with either: a compound or DMSO (Sigma-Aldrich) for 1 h at 37° C. under shaking. Following treatment, each sample was divided into PCR tubes (100 μL/tube) and subjected to a temperature gradient (ranging from 63 to 80° C.) for 3 minutes. Cell lysates were obtained by 3-cycles of freeze-thaw using liquid nitrogen and a thermal block set to 25° C. Samples were then centrifuged at 15,000 rpm at 4° C. for 20 min and were subsequently analyzed by western blot targeting QR2 (1:100, Santa Cruz; sc-271665). The isothermal dose response fingerprint (ITDRF) experiments were done using a constant temperature of 73° C. Band intensities were normalized to the highest concentration and superoxide dismutase 1 (SOD1) levels (1:200, Santa Cruz; sc-17767). Analysis of the results were performed according to Jafari et al., (2014) using GraphPad Prism software.
To establish direct target engagement, as well as cell membrane permeability, a cellular thermal shift assay (CETSA) was carried out (see methods), using the leading compounds YB-537, YB-800, and YB-808. Following 1 h preincubation with 5 μM of each of the compounds, or vehicle, thermal aggregation curves (Tagg) of QR2 expressed in HEK293T were measured in increasing temperatures. […] Based on the Tagg curves, the inventors selected 73° C. for isothermal dose-response fingerprint (IDTRF) experiments (FIG. 2B).

5×FAD mice [1] = assay: Immunohistochemistry of CA1 in 5×FAD mice (4-HNE, amyloid β, p-Tau, Iba1); assay type: in vivo, mouse; conditions: 1 month drinking
Description: A week after the completion of all behavioral experiments, 5×FAD mice were anesthetized with isoflurane, and once fully anesthetized, were transcardially perfused with 4% paraformaldehyde (PFA), dilutes in […] phosphate buffered saline (PBS, Sigma-Aldrich). Brains were then briefly removed and placed in chilled, 4% PFA for 48 h, followed by immersion in 30% sucrose in 0.1 M PBS for a further 48 h. Brains were then stored at −80° C., until they were sliced into 40 μm coronal sections using a Leica CM 1950 cryostat. Slices were then washed ×3 in PBS and blocked for 1 h at RT using 10% normal donkey serum (DNS) and 0.2% triton (Sigma-Aldrich) in PBS. Antibodies, including 4-HNE (1:500, AbCam, ab48506), Iba1 (1:2,000, AbCam, ab5076), phospho-tau (1:1,000, Thermo, MN1020) and amyloid R (1:1,000, AbCam, ab201060) diluted in PBS with 10% DNS were incubated at 4° C. overnight. The next day, the slices were washed ×3 times in PBS, and secondary antibodies including donkey anti goat Alexa Fluor 568 (AbCam, ab175704), donkey anti-mouse Cy 5 (Jackson Immuno Research, 715-175-151) and donkey anti-rabbit DyLight 488 (AbCam, ab98488) all diluted 1:500 in PBS with 1% BSA, were applied to the slices at RT for 2 h. Following the incubation, the slices were washed ×3 times in PBS, mounted onto glass slides, were uniformly covered in DAPI containing Vectashield (H-1200) and coverslips were added. Images were then taken using a confocal microscope (Olympus IX83), with identical acquisition parameters across every sample per antibody. Three slices were used per mouse per antibody, with images taken of dorsal CA1 (Bregma: −1.58 mm to −2.30 mm; with each antibody having a slice from anterior, medial and posterior regions of this range) using a ×20 objective, acquiring two 800×800 pixel images over as many Z levels possible per slice (Z-stack of the whole section). Analysis of the images was done blind, using Imaris (Bitplane) software. Surface reconstruction module was used to extract the data as volumes and signal intensities. Marker volume or intensity were normalized to the corresponding brain volume. This was done in order to normalize the marker volumes to variations in Z-stack volumes and/or changes to shape and size that needed to be performed during analysis due to debris, vasculature, corpus callosum elimination, or any other obstructions or changes in shape. The normalized value was averaged for each triplicate.
Following the completion of behavioral experiments, the inventors wished to assess brain pathologies associated with AD present in the 5×FAD mice used. Therefore, 5 days following the completion of the last behavioral experiment, and 1 month following the start of YB-537 consumption, all the mice were sacrificed and coronal sections of their fixed brains were made and used for immunohistochemistry. Since the CA1 region of the hippocampus is affected early on in the pathogenesis of AD, and this brain region is involved in the behavioral paradigms used here, the inventors acquired images of CA1. This was done with an Olympus IX83 confocal microscope using the same settings, antibodies and exposures (all slices and samples were prepared by the same experimenter and all images taken by the same experimenter) in all mice and a separate blind experimenter, unaware of the experimental conditions or details, measured and analyzed the signal detected using Imaris (Bitplane) software (see methods). For each mouse, three coronal sections were used per antibody. In each section, the same region of CA1 was acquired, using the same image frame size and resolution, at all possible depths of the section (Z-stack of the whole section), to allow measurement of the fluorescent antibody marker volume, which was normalized to the brain volume from which it was taken. First, the inventors measured oxidative stress, as indicated by lipid peroxidation product, 4-Hydroxynonenal (4-HNE, antibody: AbCam, ab48506). […]

5×FAD mice [2] = assay: Delay fear conditioning in 5×FAD mice
Description: Mice are transported to the conditioning room, which is lit by red light only, and kept there for 2 min. They were then placed inside a Habitest Operant Cage, within a Habitest Isolation Cubicle (Coulbourn), on a modular shock floor made of 16 metal grids, connected to Precision Animal Shockers (Coulbourn) with illumination inside the cage coming from a 20 W bulb. The mice were given 2 min to explore, during which baseline freezing was measured. Then, a 20 s, 4 kHz, 80 dB tone was given, co-terminating with the start of a 2 s, 0.5 mA foot-shock, which was repeated a further two times, each having 1 min interval. Following the third, and last of these bouts, 1 min was given prior to the animals being removed from the chambers. The next day, the animals were returned to the room under the same conditions, and were placed back into the chambers, and freezing to the context was measured over the course of 5 min. The next day, the mice were once again returned to the conditioning room, except the room was lit with white light, while the chambers were darkened, the chamber floor was covered with a flat, smooth plastic cover, one of the walls was fitted with a paper sticker and the chamber was scented with diluted (10%) window cleaner (Sano). In this unfamiliar context, the protocol from the first day was repeated, except without the foot-shocks. Freezing for the cue was recorded during the tone. All measurements were taken with a Sentec stc-tb33usb-at camera, and analysis was performed with Freeze Frame software (Actimetrics).

| Compound | thermal stability of QR2 (thermal aggregation curve) versus vehicle (QR2; 5 μM, 1 h preincubation) | EC50 (QR2; CETSA at 73° C., read-out: EC50 of QR2 stabilization (isothermal dose-response fingerprint)) [nM] | 4-HNE volume normalized to μm^3 of brain, CA1 (5×FAD mice [1]; 5×FAD females) | 4-HNE volume normalized to μm^3 of brain, CA1 (5×FAD mice [1]; 5×FAD males) | Amyloid β volume normalized to μm^3 of brain, CA1 (5×FAD mice [1]; 5×FAD males) | Volume of Iba1 normalized to μm^3 of brain, CA1 (5×FAD mice [1]; 5×FAD males) | Volume of p-Tau normalized to μm^3 of brain, CA1 (5×FAD mice [1]; 5×FAD males) | sum of the intensity of Iba1 positive signal normalized to μm^3 of brain, CA1 (5×FAD mice [1]; 5×FAD males) | Volume of Iba1 normalized to μm^3 of brain, CA1 (5×FAD mice [1]; 5×FAD total population) | sum of the intensity of Iba1 positive signal normalized to μm^3 of brain, CA1 (5×FAD mice [1]; 5×FAD total population) | freezing in response to the conditioned cue (5×FAD mice [2]; 5×FAD both sexes) [%] | freezing in response to the conditioned cue (5×FAD mice [2]; 5×FAD females) [%] | baseline freezing in conditioning chambers (5×FAD mice [2]; 5×FAD males) [%] | freezing in response to the conditioned context (5×FAD mice [2]; 5×FAD males) [%] | freezing in response to the conditioned cue (5×FAD mice [2]; 5×FAD males) [%] |
| --- | --- | --- | --- | --- | --- | --- | --- | --- | --- | --- | --- | --- | --- | --- | --- |
| Cc1cccn2cc(-c3cccc(S(=O)(=O)N4CCC(C)CC4)c3)nc12 [YB-800] | shifts of thermal stability | 34 | – | – | – | – | – | – | – | – | – | – | – | – | – |
| Cc1ccc(-c2cn3cccc(C)c3n2)cc1S(=O)(=O)N1CCNCC1 [YB-537, 8-methyl-2-(4-methyl-3-(piperazin-1-ylsulfonyl)phenyl)imidazo[1,2-a]pyridine hydrochloride] | – | – | 0.053±0.005 | 0.053±0.005 | 0.038±0.004 | 0.038±0.003 | 0.064±0.006 | 74.09±6.198 | 0.032±0.002 | 63.57±5.251 | 16.47±1.689 | 12.66±1.739 | 0.642±0.408 | 39.51±2.666 | 19.43±2.289 |
